We go through six compounds from patent publication US5286860A (priority 1992, dated 1994).

For orientation: IC50 means the concentration that inhibits the measured activity by half.

In one assay the target is GABAa receptor. Kind of assay: GABAa receptor binding assay: inhibition of 3H-RO15-1788 (3H-Flumazenil) binding to rat cortical tissue. The following applies: 0.5 nM 3H-RO15-1788, 30 min at 4° C., nonspecific binding with 1.0 μM diazepam. As for the experimental part: The pharmaceutical utility of compounds of this invention are indicated by the following assay for GABAa receptor activity.
Assays are carried out as described in Thomas and Tallman (J. Bio. Chem. 156: 9838-9842, J. Neurosci. 3:433-440, 1983). Rat cortical tissue is dissected and homogenized in 25 volumes (w/v) of 0.05M Tris HCl buffer (pH 7.4 at 4° C.). The tissue homogenate is centrifuged in the cold (4°) at 20,000×g for 20'. The supernatant is decanted and the pellet is rehomogenized in the same volume of buffer and again centrifuged at 20,000×g. The supernatant is decanted and the pellet is frozen at -20° C. overnight. The pellet is then thawed and rehomogenized in 25 volume (original wt/vol) of buffer and the procedure is carried out twice. The pellet is finally resuspended in 50 volumes (w/vol of 0.05M Tris HCl buffer (pH 7.4 at […]).
Incubations contain 100 μl of tissue homogenate, 100 μl of radioligand 0.5 nM (^3 H-RO15-1788 [^3 H-Flumazenil] specific activity 80 Ci/mmol), drug or blocker and buffer to a total volume of 500 μl. Incubations are carried for 30 min at 4° C. then are rapidly filtered through GFB filters to separate free and bound ligand. Filters are washed twice with fresh 0.05M Tris HCl buffer (pH 7.4 at 4° C.) and counted in a liquid scintillation counter. 1.0 μM diazepam is added to some tubes to determine nonspecific binding. Data are collected in triplicate determinations, averaged and % inhibition of total specific binding is calculated. Total Specific Binding=Total-Nonspecific. In some cases, the amounts of unlabeled drugs is varied and total displacement curves of binding are carried out. Data are converted to a form for the calculation of IC50 and Hill Coefficient (nH).
`COc1ccc(F)c(-c2cnc3[nH]c4c(c3n2)CCCC4)c1` [Compound 1, 2-(2-Fluoro-5-methoxyphenyl)-6,7,8,9-tetrahydro-5H-indolo[2,3-b]pyrazine] came in with an IC50 of 200 nM.

Compound `Fc1ccccc1-c1cnc2[nH]c3c(c2n1)CCCC3` [Compound 5, 2-(2-Fluorophenyl)-6,7,8,9-tetrahydro-5H-indolo[2,3-b]pyrazine] yielded an IC50 of 45 nM.

`COc1ccc(-c2cnc3[nH]c4ccccc4c3n2)c(F)c1` [Compound 12, 2-(2-Fluoro-4-methoxyphenyl)-5H-indolo[2,3-b]pyrazine]: the IC50 was 533 nM.

For `COc1ccc(-c2cnc3[nH]c4c(c3n2)CCCC4)c(F)c1` [Compound 11, 2-(2-Fluoro-4-methoxyphenyl)-6,7,8,9-tetrahydro-5H-indolo[2,3-b]pyrazine], the half-inhibitory concentration (IC50) was found to be 29 nM.

A further assay has as its system benzodiazepine binding site.
Assay: not given
The conditions noted are these: cited from earlier work.
Turning to `CN1CCc2cc3c(cc2[C@@H]1[C@H]1OC(=O)c2c1ccc1c2OCO1)OCO3` [(-) bicuculline], the “block of GABA-agonist enhancement of benzodiazepine binding” value is “much less active”.

In the case of `CN1CCc2cc3c(cc2[C@H]1[C@@H]1OC(=O)c2c1ccc1c2OCO1)OCO3` [(+) bicuculline], the “block of GABA-agonist enhancement of benzodiazepine binding” value is given as “blocked”.
